Experimental data: the NIST ThermoML archive (doi:10.1021/je020220n)
Values joined by “and” are separate entries in the source; they are usually repeats but may differ in a detail not shown here. Equal entries are not always repeated. Numbers after ± are expanded uncertainties.

Settings: Crystal

[I][Er]([I])[I] [erbium iodide]
Settings	vapor or sublimation pressure
871 K	5.37e-05 ± 2.2e-05 kPa
873 K	5.37e-05 ± 2.2e-05 kPa
876 K	8.51e-05 ± 3.4e-05 kPa
884 K	0.0001072 ± 4.3e-05 kPa
886 K	7.94e-05 ± 3.2e-05 kPa and 0.0001047 ± 4.2e-05 kPa and 5.75e-05 ± 2.3e-05 kPa
889 K	9.33e-05 ± 3.7e-05 kPa
890 K	0.0001047 ± 4.2e-05 kPa
891 K	0.0001479 ± 5.9e-05 kPa
897 K	0.0001349 ± 5.4e-05 kPa
898 K	0.0001349 ± 5.4e-05 kPa and 0.0001905 ± 7.6e-05 kPa
903 K	0.0001622 ± 6.5e-05 kPa and 0.0002089 ± 8.4e-05 kPa
904 K	0.0002344 ± 9.4e-05 kPa and 0.0002089 ± 8.4e-05 kPa
906 K	0.0001995 ± 8e-05 kPa
907 K	0.0001288 ± 5.1e-05 kPa
912 K	0.0002138 ± 8.6e-05 kPa and 0.0003162 ± 0.00013 kPa
913 K	0.0002692 ± 0.00011 kPa and 0.000302 ± 0.00012 kPa
915 K	0.0002344 ± 9.4e-05 kPa
916 K	0.0001738 ± 6.9e-05 kPa
918 K	0.0002951 ± 0.00012 kPa and 0.0004074 ± 0.00016 kPa
923 K	0.0004169 ± 0.00017 kPa
924 K	0.0005129 ± 0.00021 kPa and 0.0003388 ± 0.00014 kPa
928 K	0.0002754 ± 0.00011 kPa
929 K	0.0003715 ± 0.00015 kPa
930 K	0.000631 ± 0.00025 kPa and 0.000537 ± 0.00021 kPa and 0.0005754 ± 0.00023 kPa
932 K	0.0004169 ± 0.00017 kPa
934 K	0.0002884 ± 0.00012 kPa
936 K	0.0006166 ± 0.00025 kPa and 0.0008318 ± 0.00033 kPa
937 K	0.0003631 ± 0.00015 kPa
939 K	0.0007586 ± 0.0003 kPa
940 K	0.0005623 ± 0.00022 kPa and 0.000537 ± 0.00021 kPa and 0.0007586 ± 0.0003 kPa
943 K	0.001071 ± 0.00043 kPa
945 K	0.0004786 ± 0.00019 kPa
946 K	0.0005129 ± 0.00021 kPa
947 K	0.0007413 ± 0.0003 kPa
948 K	0.000955 ± 0.00038 kPa
949 K	0.001349 ± 0.00054 kPa and 0.001023 ± 0.00041 kPa and 0.001047 ± 0.00042 kPa
950 K	0.0007762 ± 0.00031 kPa
952 K	0.000537 ± 0.00021 kPa
955 K	0.0006457 ± 0.00026 kPa
956 K	0.001698 ± 0.00068 kPa
957 K	0.0009772 ± 0.00039 kPa
958 K	0.001445 ± 0.00058 kPa
959 K	0.00123 ± 0.00049 kPa
961 K	0.0007413 ± 0.0003 kPa
962 K	0.001698 ± 0.00068 kPa
963 K	0.001698 ± 0.00068 kPa and 0.001202 ± 0.00048 kPa and 0.0008913 ± 0.00036 kPa
966 K	0.00195 ± 0.00078 kPa and 0.001023 ± 0.00041 kPa
968 K	0.00257 ± 0.001 kPa
969 K	0.001514 ± 0.00061 kPa
971 K	0.001906 ± 0.00076 kPa
972 K	0.00123 ± 0.00049 kPa
973 K	0.002455 ± 0.00098 kPa
974 K	0.003162 ± 0.0013 kPa and 0.00257 ± 0.001 kPa and 0.001175 ± 0.00047 kPa
976 K	0.002042 ± 0.00082 kPa
978 K	0.002884 ± 0.0012 kPa
979 K	0.002951 ± 0.0012 kPa
980 K	0.003802 ± 0.0015 kPa and 0.001622 ± 0.00065 kPa
981 K	0.001778 ± 0.00071 kPa
982 K	0.002512 ± 0.001 kPa
983 K	0.003388 ± 0.0014 kPa
984 K	0.003548 ± 0.0014 kPa
986 K	0.003236 ± 0.0013 kPa
987 K	0.00182 ± 0.00073 kPa
988 K	0.002089 ± 0.00084 kPa
989 K	0.004266 ± 0.0017 kPa
990 K	0.003236 ± 0.0013 kPa
992 K	0.004266 ± 0.0017 kPa and 0.004467 ± 0.0018 kPa
994 K	0.004786 ± 0.0019 kPa
995 K	0.002951 ± 0.0012 kPa
996 K	0.002754 ± 0.0011 kPa
997 K	0.004169 ± 0.0017 kPa
999 K	0.004786 ± 0.0019 kPa and 0.005754 ± 0.0023 kPa
1001 K	0.00631 ± 0.0025 kPa and 0.002884 ± 0.0012 kPa
1004 K	0.006457 ± 0.0026 kPa and 0.005129 ± 0.0021 kPa
1006 K	0.006918 ± 0.0028 kPa
1007 K	0.007079 ± 0.0028 kPa
1008 K	0.004677 ± 0.0019 kPa and 0.00389 ± 0.0016 kPa
1010 K	0.007943 ± 0.0032 kPa
1011 K	0.008318 ± 0.0033 kPa
1012 K	0.006761 ± 0.0027 kPa
1015 K	0.004571 ± 0.0018 kPa
1016 K	0.005129 ± 0.0021 kPa
1017 K	0.01 ± 0.004 kPa
1018 K	0.008128 ± 0.0033 kPa
1019 K	0.01047 ± 0.0042 kPa
1026 K	0.01318 ± 0.0053 kPa
1030 K	0.006918 ± 0.0028 kPa
1036 K	0.01778 ± 0.0071 kPa
1045 K	0.01023 ± 0.0041 kPa
1046 K	0.02455 ± 0.0098 kPa
1059 K	0.03548 ± 0.014 kPa
1070 K	0.04898 ± 0.02 kPa
1082 K	0.06918 ± 0.028 kPa
